Measurements reported in patent US20230285346A1, “METHODS OF USING FTO INHIBITORS FOR THE TREATMENT OF PULMONARY HYPERTENSION” (Ann and Robert H. Lurie Children's Hospital of Chicago, priority 2022, published 2023).

Tests used:
MCT-induced PH in rats = test: monocrotaline (MCT)-induced rat PH model; format: in vivo, Sprague Dawley (SD) rats
Description: FIGS. 15A, 15B, 15C, 15D, and 15E. […] (A) FB-23-2 chemical structure. (B) Hemodynamic measurement showing decreased RVSP in FB23-2-treated MCT rats. (C) FB23-2 treatment attenuated RV hypertrophy. (D) Representative micrographs of pentachrome staining showing a markedly thickened vessel in Vehicle-treated MCT rats whereas normalized thickness of vessel walls in FB23-2-treated rats. At 2 weeks post-MCT challenge, the rats were treated with either PBS or FB23-2 (3 mg/kg, i.p. twice a day) for 2 weeks. V=vessel, Br=Bronchiole. Scale bar, 20 μm. […] Student's t test.
FIGS. 17A, 17B, and 17C. Decreased RVSP and RV hypertrophy in Meclofenamate-treated MCT rats. (A) representative tracings of RVSP measurement. Mec=Meclofenamate. […] (C) Reduced RV hypertrophy in Meclofenamate-treated MCT rats. CTL, control rats without MCT treatment. *P<0.05; **P<0.01. One-way ANOVA.
FIGS. 18A and 18B. Inhibited pulmonary vascular remodeling in Meclofenamate-treated MCT rats. (A) Representative micrographs of pentachrome staining showing a markedly thickened vessel in PBS-treated MCT rats whereas normalized thickness of vessel walls in Meclofenamate-treated rats. At 2 weeks post-MCT challenge, the rats were treated with either PBS or Meclofenamate for 2 weeks. V=vessel, Br=Bronchiole. Scale bar, 20 μm. (B). Quantification of pulmonary artery (PA) wall thickness. CTL=control rats without MCT treatment. *P<0.05. One-way ANOVA.
FIGS. 19A and 19B. Improved right heart contractility and pulmonary arterial function in Meclofenamate-treated MCT rats. At 2 weeks post-MCT, the rats were treated with either PBS or Meclofenamate for 2 weeks and then subject to echocardiography for assessment of right heart contractility determined by RV fraction area changes (RV FAC) (A), and of pulmonary arterial function by PA acceleration time/ejection time ratio (PA AT/ET) (B). ** P<0.01. Student t test.
Inhibited Arginase expression in lung ECs of Fto^Tie2Cre mice following chronic hypoxia. To identify potential FTO targets in lung ECs, RNA was isolated from lung ECs of WT mice and Fto^Tie2Cre mice at normoxia, 3 days, and 21 days hypoxia for RNA sequencing analysis. Arg1 is one of the top 10 genes induced in hypoxic WT mice but not in hypoxic Fto^Tie2Cre mice. […] It has been shown that substrate L-Arginine levels inversely correlate to PA pressure in patients (19). […] Increased Arginase expression and activity in lung ECs leads to reduced substrate L-Arginine for nitric oxide (NO) synthesis by eNOS and thus impairs NO production (21, 22). Low NO levels affect vasotone and smooth muscle cell growth. […] FTO deficiency reduces the stability of ARG2 mRNA in human PAECs. To determine whether ARG2 (the major isoform in human ECs) is a target of FTO in human PAECs, a stability assay was carried out and the effect of FTO on the decay of ARG2 mRNA was assessed. FTO-silenced and control PAECs were treated with 5 μg/mL actinomycin D to stop the new transcriptional process. Total RNA was then isolated at 0, 3, 6 h post-actinomycin D treatment and quantified by QRT-PCR analysis. The relative ARG2 level was calculated and normalized to β-actin and the ARG2 mRNA half-life time (t1/2) was estimated according to the linear regression analysis (9). […] Increased m^6A demethylase activity and FTO expression in PAECs from IPAH patients compared to donor ECs and FTO-dependent upregulation of ARG2 expression in PAECs of IPAH patients. […] Furthermore, methylated RNA immunoprecipitation (MeRIP)-QRT-PCR analysis confirmed a marked decrease of m^6A ARG2 in IPAH ECs compared to normal ECs from unused donors (FIG. 10). • 7. SMC-specific Fto deletion inhibits hypoxia-induced PH in mice. To determine whether FTO is essential for medial thickening and muscularization of distal pulmonary vessels and development of PAH, novel tamoxifen-inducible Fto^iΔSMC mice were generated by breeding Fto-floxed mice into the genetic background of Myh11-CreER^T2 mice. […]

FTO = FTO (Homo sapiens, UniProt Q9C0B1); conditions: FTO versus ALKBH5; cited from earlier work
Chain of FTO (Q9C0B1 whole entry): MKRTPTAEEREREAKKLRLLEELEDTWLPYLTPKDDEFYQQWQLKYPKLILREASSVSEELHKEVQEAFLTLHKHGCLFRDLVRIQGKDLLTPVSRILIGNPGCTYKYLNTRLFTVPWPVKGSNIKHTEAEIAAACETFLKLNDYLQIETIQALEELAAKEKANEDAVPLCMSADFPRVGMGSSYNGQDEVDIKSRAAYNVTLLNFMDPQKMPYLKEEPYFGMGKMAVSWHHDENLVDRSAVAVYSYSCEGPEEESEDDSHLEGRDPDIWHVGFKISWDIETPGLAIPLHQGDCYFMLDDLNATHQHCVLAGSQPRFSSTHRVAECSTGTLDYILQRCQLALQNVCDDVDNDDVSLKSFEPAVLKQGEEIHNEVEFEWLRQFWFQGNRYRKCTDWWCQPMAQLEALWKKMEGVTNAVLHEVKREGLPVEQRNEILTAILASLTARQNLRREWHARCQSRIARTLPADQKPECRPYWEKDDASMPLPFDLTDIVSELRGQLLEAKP

[1] = FB23-2 3 mg/kg, i.p. twice a day for 2 weeks, vs vehicle-treated MCT rats

Row | SMILES | MCT-induced RVSP increase (MCT-induced PH in rats; FB23-2 3 mg/kg, i.p. twice a day for 2 weeks from 2 weeks post-MCT, measured 4 weeks post-MCT, vs vehicle) | RV hypertrophy determined by RV/LV+septum ratio (MCT-induced PH in rats; FB23-2 3 mg/kg, i.p. twice a day for 2 weeks from 2 weeks post-MCT, vs vehicle) | pulmonary arterial function (echocardiography, PA AT/ET) (MCT-induced PH in rats; [1]) | pulmonary vascular remodeling (vessel wall thickness, pentachrome staining) (MCT-induced PH in rats; [1]) | RVSP (MCT-induced PH in rats; Meclofenamate 10 mg/kg, p.o., twice a day for 2 weeks from 2 weeks post-MCT, vs PBS-treated MCT rats) | MCT-induced RV hypertrophy (MCT-induced PH in rats; Meclofenamate 10 mg/kg, p.o., twice a day for 2 weeks, vs PBS-treated MCT rats) | PA wall thickness (pentachrome staining; pulmonary vascular remodeling) (MCT-induced PH in rats; Meclofenamate 10 mg/kg, p.o., twice a day for 2 weeks, vs untreated MCT-rats) | right heart contractility, RV fraction area changes (RV FAC), echocardiography (MCT-induced PH in rats; Meclofenamate for 2 weeks from 2 weeks post-MCT, decrease seen in PBS-treated MCT rats) | ratio of PA acceleration time/ejection time (PA AT/ET) (MCT-induced PH in rats; Meclofenamate for 2 weeks from 2 weeks post-MCT, vs PBS-treated MCT rats) | selectivity of FTO inhibition (FTO)
1 | Cc1noc(C)c1-c1cc(Cl)c(Nc2ccccc2C(=O)NO)c(Cl)c1 [FB23-2] | markedly reduced | markedly reduced | improved pulmonary arterial function | reduced pulmonary vascular remodeling |  |  |  |  |  | 
2 | Cc1ccc(Cl)c(Nc2ccccc2C(=O)O)c1Cl [Meclofenamate sodium] |  |  |  |  | drastically decreased | markedly reduced | markedly reduced | reversed | marked increase | selective over ALKBH5
